Measured values: patent publication US20180055050A1 (priority 2016, published 2018)

System: Rice Blast
Set-up: species or system Magnaporthe oryzae
Settings: in vivo

With `COc1ccnc(C(=O)N[C@H]2COC(=O)[C@H](Cc3ccccc3)[C@@H](OC(=O)C(C)C)[C@H](C)OC2=O)c1OCOC(=O)C(C)C` [Compound I] the “Flag Leaf (% INFECT)” value was “B (key: A: 1-25; B: 26-50; C: 51-75; D: 76-100; E: Not tested)”, the “Panicles (% INCID)” value was “B (key: A: 1-25; B: 26-50; C: 51-75; D: 76-100; E: Not tested)” and the “Panicles (% INFECT)” value was “B (key: A: 1-25; B: 26-50; C: 51-75; D: 76-100; E: Not tested)”.
